# Earlier results in patent US7247752B2, “Methods for the synthesis of astaxanthin” (Cardax Pharmaceuticals, Inc., priority 2004, dated 2007).
# Tested on: transformed cells as well as normal prostatic epithelium
# Settings: alone and/or in combination with other antioxidants (e.g. vitamin E)
compound,measurement,value
CC(C)=CCC/C(C)=C/C=C/C(C)=C/C=C/C(C)=C/C=C/C=C(C)/C=C/C=C(C)/C=C/C=C(\C)CCC=C(C)C [lycopene],growth inhibition of cultured human cells,growth inhibitory
